Laboratory results as given in article PMC10762078, “Role of UPF1-LIN28A interaction during early differentiation of pluripotent stem cells” (Nature Communications, 2024).
Ends that are not written are not given here.

Legend:
UPF1-LIN28A interaction = experiment: GST pull-down of MYC-UPF1 with GST-LIN28A in presence of CPP-conjugated peptide; type: cell-based; details: 293T cells, CPP-peptide 2 μM 12 h, n = 3
Protocol: For CPP-conjugated peptide delivery, HeLa, 293T, and PA-1 cells were incubated with CPP-conjugated peptides or CPP-FITC at 2 μM in DMEM with 10% FBS for 12 h a day before cell harvest. hPSCs were treated with CPP-conjugated peptides at 10 μM in mTeSR Plus Medium, and the peptide-containing medium was changed every day over 10 days. The ROCK inhibitor (Tocris Bioscience, Y-27632) treated-hPSCs were dissociated into single cells using Accutase (Merck, SCR005) and differentiated into ectoderm, mesoderm, and endoderm using the STEMdiff Trilineage Differentiation Kit ([…] Technologies, 05230) following the manufacturer’s protocol. Differentiated cells treated with CPP-conjugated peptides were analysed at 0, 3, and 5 days for ectoderm and endoderm, and at 0, 3, and 4 days for mesoderm.
Cells were lysed in ice-cold hypotonic buffer (10 mM Tris-Cl pH 7.5, 10 mM NaCl, 10 mM EDTA, 0.5% Triton X 100, Xpert Protease inhibitor cocktail solution, and Xpert Phosphatase inhibitor cocktail solution (GenDEPOT)). […]
Protein samples were loaded for electrophoresis on sodium dodecyl sulphate (SDS) polyacrylamide gels, followed by Coomassie blue staining or transferred to nitrocellulose membranes (Cytiva) for WB. […] The blots were imaged using ChemiDoc XRS+ System (Bio-Rad) and the greyscale intensity values were quantified using Image Lab 3.0 software (Bio-Rad).

His-LIN28A = target: T1, His-LIN28A (Homo sapiens, UniProt Q9H9Z2); experiment: SPR kinetic evaluation of peptide binding to immobilised His-LIN28A
T1 construct: purchased LS-bio LS-G637
T1 sequence (Q9H9Z2 1-209): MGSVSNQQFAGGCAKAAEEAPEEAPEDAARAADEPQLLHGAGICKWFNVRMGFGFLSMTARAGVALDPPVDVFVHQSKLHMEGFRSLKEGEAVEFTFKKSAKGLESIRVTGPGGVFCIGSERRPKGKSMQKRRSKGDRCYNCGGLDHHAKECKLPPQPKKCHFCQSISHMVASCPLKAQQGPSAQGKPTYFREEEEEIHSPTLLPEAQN
Protocol: For ligand immobilisation, the nitrilotriacetic acid (NTA) surface gold sensor chip (icluebio) was activated with 5 mM NiCl2 (Xantec) at a flow rate of 30 μL/min, following equalisation with 1× HBS-T buffer. His-LIN28A (LS-bio, LS-G637) was used as a ligand protein and was applied to a sensor chip at a flow rate of 10 μL/min for 40 min after dilution in 1× HEPES-buffered saline (HBS-T) buffer at a 1/20 ratio. Approximately 1000 resonance units (RU) were bonded to the sensor chip after ligand immobilisation. RU was measured using iMSPR-ProX (icluebio). An indigenous NTA sensor chip was used as a reference channel.
Kinetics assessment was performed for peptides with RU values greater than 5.

Row | Sequence | coimmunoprecipitated MYC-UPF1 with GST-LIN28A (UPF1-LIN28A interaction) | kd (His-LIN28A; His-LIN28A ligand, peptide analyte 30 to 0.95 μM, HBS-T) [s⁻¹] | kon (His-LIN28A; His-LIN28A ligand, peptide analyte 30 to 0.95 μM, HBS-T, read-out: ka) [M⁻¹ s⁻¹] | binding affinity to LIN28A (His-LIN28A; diverse concentrations)
1 | KKKWCRKKKSSADEKRYRALKRTAERELLMNA [CPP-P8, CPP conjugated to P8] | reduced upon CPP-P8 treatment |  |  | 
2 | KKKWCRKKKSSADEKRYRALKRTAERELLMNA [P8] |  | 0.0137 | 2640 | high binding affinity to LIN28A
